Type in all cases: cell-based
Test [1] has as its target T1, interaction of TLR2 with MyD88 (Homo sapiens, UniProt O60603).
T1 construct: host or cells: THP-1 cells, PMA 20 ng/mL for 24 hrs, P3C-stimulated
Kind of test: Co-immunoprecipitation of TLR2 with MyD88 in THP-1 cells. The following applies: C29 150 μM, P3C 50 ng/mL, 15 and 30 minutes, statistical significance at 30 minutes. As for the experimental part: FIG. 2. C29 inhibits ligand-induced interaction of TLR2 with MyD88 and blocks MAPK and NF-κβ activation. (A) THP-1 cells were cultured in the presence of PMA (20 ng/mL) for 24 hrs and washed twice in media. THP-1 human monocytes were pretreated with media, vehicle (195 μM NaOH), or C29 (150 μM) for 1 hr and treated with P3C (50 ng/mL) in the presence of media, vehicle, or C29 for 15 or 30 min. Co-immunoprecipitation (IP) was carried out using anti-MyD88 antibody and Western analysis (IB) using whole cell lysates. (B) Densitometry analysis (mean±SEM) of 3 independent experiments as shown in (A). (C) Murine peritoneal macrophages were pretreated for 1 hr with media, vehicle (65 μM NaOH), or C29 (50 μM) and treated with P3C (50 ng/mL) for 5-30 min in the presence of media, vehicle, or C29. IB was performed using whole cell lysates and antibodies directed against the signaling intermediates indicated. β-actin was probed as a loading protein. […]
Cells were treated and washed once with 1×PBS and lysed using buffer containing 20 mM HEPES (pH 7.4), 150 mM NaCl, 1 mM EDTA, 1 mM EGTA (pH 8.0), 50 mM NaF, 0.5% Triton X-100, 1 mM Na3VO4, 1 mM DTT, 1 mM PMSF, and protease inhibitor (Roche Applied Science, Indianapolis, IN). Cells were harvested and protein was quantified using BCA Protein assay reagents (Thermo Scientific/Pierce, Rockford, IL). […]

Test [2] has as its target T2, mTLR2/6 (Mus musculus, UniProt Q9QUN7).
T2 construct: expressed in transfected cells; host or cells: HEK293T, transient transfection; plasmids from Dr. Vladimir Toshchakov
Kind of test: NF-κβ (ELAM)-luciferase reporter assay in HEK293T cells transfected with murine TLR2 and TLR6, P2C. The following applies: HEK293T transfected with murine TLR2 and TLR6, C29 50 μM, P2C 50 ng/mL 5 hrs. As for the experimental part: FIG. 9. C29 is species-specific and blocks human TLR2/6 signaling, but not murine TLR2/6 signaling. (A-D) HEK293T cells were transiently transfected with reporter constructs for ELAM-luciferase, Renilla-luciferase, and pcDNA3.1 in combination with/without pcDNA3-YFP-hTLR2, pFLAG-CMV1-hTLR1, pcDNA3-CFP-hTLR6, pcDNA3.1-mTLR2-CFP, pcDNA3.1-mTLR1-YFP, or pcDNA3.1-mTLR6-CFP. Cells were pretreated for 1 hr with media, vehicle (65 μM NaOH), or C29 (50 μM) and then treated with P3C or P2C (50 ng/mL) for 5 hrs in the presence of media, vehicle, or C29. Lysates were prepared and the dual-luciferase assay performed. Panels A and B represent the mean±SEM from 3 independent experiments and panels C and D represent the mean±SEM from 2 independent experiments each carried out in duplicate (*, p≤0.05; **, p≤0.01).
HEK293T cells were cultured and plated overnight in 12-well tissue culture plates (2×10^5 cells/well). Transfection mixtures consisted of pcDNA3-YFP-hTLR2 or pcDNA3.1 control vector (1 μg/well each), pELAM (NF-κB)-luciferase (0.2 μg/well), and pRL-TK-Renilla luciferase (0.05 μg/well). […] Cells were lysed in a passive lysis buffer (Promega, Madison, WI) and firefly luciferase and Renilla luciferase activities were measured using the dual luciferase reporter assay system (Promega, Madison, WI). […]
On the technique in general: In a reporter assay the amount or activity of a reporter protein is the signal.

For test [3], the target named is TLR2/6 (Homo sapiens, UniProt O60603). Kind of test: P2C-induced IL-8 mRNA (qRT-PCR) in HEK-TLR2 stable transfectants. Details: expressed in transfected cells.
Chain of TLR2/6 (O60603 21-784): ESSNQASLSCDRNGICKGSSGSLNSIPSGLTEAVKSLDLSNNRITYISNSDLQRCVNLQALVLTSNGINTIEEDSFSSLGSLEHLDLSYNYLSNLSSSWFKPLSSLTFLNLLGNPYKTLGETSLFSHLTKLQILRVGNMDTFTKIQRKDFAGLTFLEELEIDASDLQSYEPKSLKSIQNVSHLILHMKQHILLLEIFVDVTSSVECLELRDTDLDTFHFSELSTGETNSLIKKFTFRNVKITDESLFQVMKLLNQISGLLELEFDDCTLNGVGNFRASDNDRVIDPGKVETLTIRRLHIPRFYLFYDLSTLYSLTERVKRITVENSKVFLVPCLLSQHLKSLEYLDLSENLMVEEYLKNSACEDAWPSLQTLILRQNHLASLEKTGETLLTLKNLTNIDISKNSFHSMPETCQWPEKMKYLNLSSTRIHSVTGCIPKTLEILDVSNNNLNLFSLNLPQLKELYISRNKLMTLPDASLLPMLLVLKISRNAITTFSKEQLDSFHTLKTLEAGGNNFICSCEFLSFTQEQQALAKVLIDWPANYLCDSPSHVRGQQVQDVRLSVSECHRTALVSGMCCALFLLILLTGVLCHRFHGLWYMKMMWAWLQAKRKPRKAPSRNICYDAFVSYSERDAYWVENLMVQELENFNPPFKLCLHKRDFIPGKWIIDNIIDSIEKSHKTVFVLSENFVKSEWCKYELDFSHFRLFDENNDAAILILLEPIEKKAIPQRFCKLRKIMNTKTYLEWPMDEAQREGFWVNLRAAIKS

A value given as a limit tells only on which side of the number the result lay.

T1 sequence (O60603 21-784): as above
T2 sequence (Q9QUN7 25-784): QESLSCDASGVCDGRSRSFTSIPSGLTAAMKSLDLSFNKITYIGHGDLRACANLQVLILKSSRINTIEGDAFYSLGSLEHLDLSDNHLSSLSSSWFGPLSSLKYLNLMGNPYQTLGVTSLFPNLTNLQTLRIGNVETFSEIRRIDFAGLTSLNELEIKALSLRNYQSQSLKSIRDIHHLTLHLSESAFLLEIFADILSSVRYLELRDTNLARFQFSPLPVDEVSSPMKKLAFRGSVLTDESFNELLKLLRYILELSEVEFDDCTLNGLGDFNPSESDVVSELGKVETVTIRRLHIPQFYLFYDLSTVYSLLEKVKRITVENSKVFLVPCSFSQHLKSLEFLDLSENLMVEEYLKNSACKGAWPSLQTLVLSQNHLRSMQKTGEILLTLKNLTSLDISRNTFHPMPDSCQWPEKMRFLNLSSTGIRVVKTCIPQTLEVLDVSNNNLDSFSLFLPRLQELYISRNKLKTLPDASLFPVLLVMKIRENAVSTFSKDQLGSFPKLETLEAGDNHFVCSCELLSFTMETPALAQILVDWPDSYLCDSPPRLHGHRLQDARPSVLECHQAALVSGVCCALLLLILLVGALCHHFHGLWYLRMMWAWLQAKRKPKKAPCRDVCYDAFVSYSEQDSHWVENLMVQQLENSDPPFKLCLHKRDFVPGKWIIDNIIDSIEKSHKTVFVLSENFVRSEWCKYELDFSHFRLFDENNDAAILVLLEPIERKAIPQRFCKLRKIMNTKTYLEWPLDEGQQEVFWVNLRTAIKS

Take `COc1cccc(/C=N/c2cccc(C(=O)O)c2C)c1O` [Compound C29]: the “interaction between endogenous TLR2 and MyD88 (co-IP)” value in test [1] is given as “diminished the interaction”. Moreover, the “mTLR2/6-induced NF-κβ-luciferase activity” value in test [2] is reported as “but not mTLR2/6-induced”. Also, the inhibition at 100 µM in test [3] (100 μM compound, 1 hr pretreatment, P2C 5 ng/mL 1 hr, HEK-TLR2 cells, read-out: decrease of P2C-induced IL-8 mRNA) was not below 50%. Besides, in test [3] (C29 10 μM or 50 μM, P2C 200 ng/mL 1 hr, HEK-TLR2 stable transfectants), the “P2C-induced IL-8 mRNA” value was “blocked P3C- and P2C-induced IL-8 mRNA dose-dependently”.
